Experimental findings from patent publication US11518760B2 (Liverpool School of Tropical Medicine, priority 2017, dated 2022) are described below.

Molecules are shown by their SMILES.

One assay concerns C6/36 Aedes albopictus cell line infected with Wolbachia pipientis (Wolbachia strain wAlbB). The assay is described as follows: In vitro insect cell line assay (anti-Wolbachia screen, SYTO 11 high content imaging). Type of assay: cell-based. Conditions: 168 h; C6/36 Aedes albopictus cells infected with Wolbachia pipientis wAlbB, 7 days incubation, SYTO 11 imaging; read-out: In vitro anti-Wolbachia activity. The method in brief:
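Wolbachia wAlbB-infected C6/36 Aedes albopictus cells were exposed to compounds at a final 5 μM for 7 days at 26 °C, with DMSO-medium wells as untreated controls. Cells were then stained with SYTO 11 for 15 min, imaged by high-content microscopy and scored by texture analysis.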
For `FC(F)(F)c1ccccc1C1CCN1c1nc(N2CCC(Cl)CC2)nc2ncccc12` (stereo not shown) [Example 212, 2-(4-chloropiperidin-1-yl)-4-(2-(2-(trifluoromethyl)phenyl)azetidin-1-yl)pyrido[2,3-d]pyrimidine], the EC50 was in the range of 100 to 1000 nM.
On the same count and under the same terms, the same measure for `FC1(F)CCN(Cc2nc(NCc3cccnc3C(F)(F)F)c3cccnc3n2)CC1` [Example 228, 2-((4,4-difluoropiperidin-1-yl)methyl)-N-((2-(trifluoromethyl)pyridin-3-yl)methyl)pyrido[2,3-d]pyrimidin-4-amine]: 100 to 1000 nM; for `CC(C)N(C)c1nc(N2CCC2c2ccccc2C(F)(F)F)c2cccnc2n1` (stereo not shown) [Example 184, N-isopropyl-N-methyl-4-(2-(2-(trifluoromethyl)phenyl)azetidin-1-yl)pyrido[2,3-d]pyrimidin-2-amine]: 0.01 to 1 nM; for `CC(C)Nc1nc(NCc2ccccc2Cl)c2ccccc2n1` [Example 137, N^4-(2-chlorobenzyl)-N^2-isopropylquinazoline-2,4-diamine]: 1000 to 100000 nM.
The same measure, in the same setting: next, `CC(C)Nc1nc(NCc2cccnc2C(F)(F)F)c2sccc2n1` [Example 153, N^2-isopropyl-N^4-((2-(trifluoromethyl)pyridin-3-yl)methyl)thieno[3,2-d]pyrimidine-2,4-diamine]: 10 to 100 nM; `FC(F)(F)c1ccccc1CNc1nc(NC2CNC2)nc2ncccc12` [Example 141, N^2-(azetidin-3-yl)-N^4-(2-(trifluoromethyl)benzyl)pyrido[2,3-d]pyrimidine-2,4-diamine]: 100 to 1000 nM.
On the same count and under the same terms, the same measure for `CC(C)Nc1nc(NCc2ccc(C#N)cc2)c2ccccc2n1` [Example 120, N^4-(4-cyanobenzyl)-N^2-isopropylquinazoline-2,4-diamine]: 100 to 1000 nM; for `CC1(C#N)CCN(c2nc(NCc3cccnc3C(F)(F)F)c3cccnc3n2)CC1` [Example 250, 4-methyl-1-(4-(((2-(trifluoromethyl)pyridin-3-yl)methyl)amino)pyrido[2,3-d]pyrimidin-2-yl)piperidine-4-carbonitrile]: 0.01 to 1 nM.
Consider `FC(F)(F)c1ncccc1CNc1nc(N2CCOC3(CC3)C2)nc2ncccc12` [Example 256, 2-(4-oxa-7-azaspiro[2.5]octan-7-yl)-N-((2-(trifluoromethyl)pyridin-3-yl)methyl)pyrido[2,3-d]pyrimidin-4-amine], for which the EC50 was less than 0.01 nM.
As for `CC(C)N(C)c1nc(NCc2ccccc2Cl)c2sccc2n1` [Example 33, N^4-(2-chlorobenzyl)-N^2-isopropyl-N^2-methylthieno[3,2-d]pyrimidine-2,4-diamine], the EC50 lay in the range of 100 to 1000 nM.
Turning to `CC(C)Nc1nc(NCc2ccc(S(C)(=O)=O)cc2)c2ncccc2n1` [Example 123, N^2-isopropyl-N^4-(4-(methylsulfonyl)benzyl)pyrido[3,2-d]pyrimidine-2,4-diamine], the EC50 fell in the range of 1000 to 100000 nM.
Take `FC(F)(F)c1ccccc1CNc1nc(N2CCOCC2)nc2ccsc12` [Example 94, 2-morpholino-N-(2-(trifluoromethyl)benzyl)thieno[3,2-d]pyrimidin-4-amine]: the EC50 is 1000 to 100000 nM.
Regarding `COc1cccc(CNc2nc(NC(C)C)nc3ccsc23)c1F` [Example 26, N^4-(2-fluoro-3-methoxybenzyl)-N^2-isopropylthieno[3,2-d]pyrimidine-2,4-diamine], the EC50 is 100 to 1000 nM.
Regarding `FC(F)(F)c1ccccc1C1CCN1c1nc(N2CC(C(F)(F)F)C2)nc2ncccc12` (stereo not shown) [Example 216, 2-(3-(trifluoromethyl)azetidin-1-yl)-4-(2-(2-(trifluoromethyl)phenyl)azetidin-1-yl)pyrido[2,3-d]pyrimidine], the EC50 lay in the range of 100 to 1000 nM.
On to `CC(C)Nc1nc(NCc2ccc(Cl)cc2)c2sccc2n1` [Example 19, N^4-(4-chlorobenzyl)-N^2-isopropylthieno[3,2-d]pyrimidine-2,4-diamine], for which the EC50 fell in the range of 1000 to 100000 nM.
With `CC(C)(C)Nc1nc(NCc2ccccc2C(F)(F)F)c2sccc2n1` [Example 41, N^2-(tert-butyl)-N^4-(2-(trifluoromethyl)benzyl)thieno[3,2-d]pyrimidine-2,4-diamine], the EC50 lay in the range of 10 to 100 nM.
Same read-out and setting: the same measure for `Fc1ccccc1CNc1nc(Cl)nc2ccsc12` [Example 10]: 1000 to 100000 nM; for `CC(C)N(C)c1nc(N2CCCCC2c2ccccc2C(F)(F)F)c2cccnc2n1` (stereo not shown) [Example 186, N-isopropyl-N-methyl-4-(2-(2-(trifluoromethyl)phenyl)piperidin-1-yl)pyrido[2,3-d]pyrimidin-2-amine]: 1000 to 100000 nM; for `FC(F)(F)c1ccccc1CNc1nc(N2CC3CC2CO3)nc2ncccc12` (stereo not shown) [Example 267, 2-(2-oxa-5-azabicyclo[2.2.1]heptan-5-yl)-N-(2-(trifluoromethyl)benzyl)pyrido[2,3-d]pyrimidin-4-amine]: less than 0.01 nM.
With `CC1CN(c2nc(NCc3cccnc3C(F)(F)F)c3cccnc3n2)CCO1` (stereo not shown) [Example 241, 2-(2-methylmorpholino)-N-((2-(trifluoromethyl)pyridin-3-yl)methyl)pyrido[2,3-d]pyrimidin-4-amine], the EC50 was 0.01 to 1 nM.
As to `CS(=O)(=O)c1ccccc1CNc1ncnc2ccsc12` [Example 97, N-(2-(methylsulfonyl)benzyl)thieno[3,2-d]pyrimidin-4-amine], the EC50 lay within 100 to 1000 nM.
Turning to `FC(F)(F)CNc1nc(NCc2ccccc2C(F)(F)F)c2sccc2n1` [Example 42, N^2-(2,2,2-trifluoroethyl)-N^4-(2-(trifluoromethyl)benzyl)thieno[3,2-d]pyrimidine-2,4-diamine], the EC50 is 100 to 1000 nM.
Same read-out and setting: next, `CC(C)Nc1nc(NCc2ccc(F)cc2)c2sccc2n1` [Example 15, N^4-(4-fluorobenzyl)-N^2-isopropylthieno[3,2-d]pyrimidine-2,4-diamine]: 100 to 1000 nM; `CN(c1nc(NCc2cccnc2C(F)(F)F)c2cccnc2n1)C1CC1` [Example 175, N^2-cyclopropyl-N^2-methyl-N^4-((2-(trifluoromethyl)pyridin-3-yl)methyl)pyrido[2,3-d]pyrimidine-2,4-diamine]: 1 to 10 nM; `COc1ccc(CNc2nc(NC(C)C)nc3ccccc23)cc1` [Example 138, N^2-isopropyl-N^4-(4-methoxybenzyl)quinazoline-2,4-diamine]: 1000 to 100000 nM.
With `FC(F)(F)c1ncccc1CNc1nc(N2CC3CC(C2)O3)nc2ncccc12` [Example 293, 2-(6-oxa-3-azabicyclo[3.1.1]heptan-3-yl)-N-((2-(trifluoromethyl)pyridin-3-yl)methyl)pyrido[2,3-d]pyrimidin-4-amine], the EC50 fell in the range of 1 to 10 nM.
On the same count and under the same terms, the same measure for `O=C(Nc1nc(NCc2cccnc2C(F)(F)F)c2cccnc2n1)Nc1ccccc1F` [Example 206, 1-(2-fluorophenyl)-3-(4-(((2-(trifluoromethyl)pyridin-3-yl)methyl)amino)pyrido[2,3-d]pyrimidin-2-yl)urea]: 100 to 1000 nM; for `CC(C)Nc1nc(NCc2ccccc2F)c2ccccc2n1` [Example 135, N^4-(2-fluorobenzyl)-N^2-isopropylquinazoline-2,4-diamine]: 1000 to 100000 nM; for `CNc1nc(NCc2ccccc2C(F)(F)F)c2cccnc2n1` [Example 143, N^2-methyl-N^4-(2-(trifluoromethyl)benzyl)pyrido[2,3-d]pyrimidine-2,4-diamine]: 10 to 100 nM.
With `FC(F)(F)c1ncccc1CNc1nc(N2CC(C(F)(F)F)C2)nc2ncccc12` [Example 202, 2-(3-(trifluoromethyl)azetidin-1-yl)-N-((2-(trifluoromethyl)pyridin-3-yl)methyl)pyrido[2,3-d]pyrimidin-4-amine], the EC50 was in the range of 1 to 10 nM.
On the same count and under the same terms, the same measure for `CC(C)(C)Nc1ncnc2ccsc12` [Example 78]: 1000 to 100000 nM; for `FC(F)(F)c1nc(NCc2ccccc2C(F)(F)F)c2sccc2n1` [Example 56, 2-(trifluoromethyl)-N-(2-(trifluoromethyl)benzyl)thieno(3,2-d]pyrimidin-4-amine]: 10 to 100 nM.
As to `FC(F)(F)c1ncccc1CNc1nc(CN2CCC(Cl)CC2)nc2ncccc12` [Example 227, 2-((4-chloropiperidin-1-yl)methyl)-N-((2-(trifluoromethyl)pyridin-3-yl)methyl)pyrido[2,3-d]pyrimidin-4-amine], the EC50 fell in the range of 100 to 1000 nM.
The same measure, in the same setting: the same measure for `FC(F)O[C@H]1CCN(c2nc(NCc3cccnc3C(F)(F)F)c3cccnc3n2)C1` [Example 281, (S)-2-(3-(difluoromethoxy)pyrrolidin-1-yl)-N-((2-(trifluoromethyl)pyridin-3-yl)methyl)pyrido[2,3-d]pyrimidin-4-amine]: 0.01 to 1 nM; for `FC(F)(F)c1ncccc1CNc1ncnc2ncccc12` [Example 170, N-((2-(trifluoromethyl)pyridin-3-yl)methyl)pyrido[2,3-d]pyrimidin-4-amine]: 1000 to 100000 nM.
`CNc1nc(NCc2cccnc2C(F)(F)F)c2cccnc2n1` [Example 149, N^2-methyl-N^4-((2-(trifluoromethyl)pyridin-3-yl)methyl)pyrido[2,3-d]pyrimidine-2,4-diamine]: the EC50 fell in the range of 100 to 1000 nM.
For `CC1COCCN1c1nc(NCc2cccnc2C(F)(F)F)c2cccnc2n1` (stereo not shown) [Example 193, 2-(3-methylmorpholino)-N-((2-(trifluoromethyl)pyridin-3-yl)methyl)pyrido[2,3-d]pyrimidin-4-amine], the EC50 fell in the range of 1 to 10 nM.
Consider `FC1(F)CCN(c2nc(NCc3ccccc3C(F)(F)F)c3cccnc3n2)CC1` [Example 196, 2-(4,4-difluoropiperidin-1-yl)-N-(2-(trifluoromethyl)benzyl)pyrido[2,3-d]pyrimidin-4-amine], for which the EC50 is 0.01 to 1 nM.
As for `CS(=O)(=O)C1CCN(c2nc(NCc3cccnc3C(F)(F)F)c3cccnc3n2)CC1` [Example 232, 2-(4-(methylsulfonyl)piperidin-1-yl)-N-((2-(trifluoromethyl)pyridin-3-yl)methyl)pyrido[2,3-d]pyrimidin-4-amine], the EC50 lay in the range of 100 to 1000 nM.

Staying with this assay, now noted: C6/36, 168 h, read-out: In vitro anti-Wolbachia activity.
For `Cc1cc2ncnc(N(C)C(C)c3ccccc3C(F)(F)F)c2s1` (stereo not shown) [Example 1], the EC50 was 1000 to 100000 nM.
